The text below walks through data of PubChem BioAssay (NCI).

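Dose response: 5 concentrations. Exposure: 48 h. Format: 96-well plates. Endpoint: linear interpolation; highest concentration if not reached. Here, GI50 denotes the concentration required for 50% inhibition of growth. TGI marks complete inhibition of growth.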

Test in all cases: NCI-60 cell line screen, 48 h
Assay [1] deals with SK-OV-3 ovarian.
Assay [2] deals with IGROV1 ovarian.
Assay [3] has as its system HCC-2998 colon.
Assay [4] relates to NCI/ADR-RES ovarian.
The test system of assay [5] is OVCAR-8 ovarian.
In assay [6] the test system is SR leukemia.
Assay [7] has as its system RXF 393 renal.
Assay [8] concerns DU-145 prostate.
For assay [9], the system named is SF-295 CNS.
The subject of assay [10] is SN12C renal.

For the compound `Nc1c(C(=O)Nc2ccccc2)sc2nc3c(cc12)CCCCC3`, the GI50 is 633 nM in assay [1]; 6080 nM in [2]; 1.01 µM in assay [3]; 507 nM in assay [4]; 1510 nM in [5]; 337 nM in assay [6]. Also, the GI50 in assay [7] is 321 nM; in assay [8] it was 619 nM; in assay [9], 366 nM; in [10], 1880 nM. The TGI in assay [1] is 10.8 µM; in assay [2], more than 100 µM; in assay [3], more than 100 µM; in [4] it was more than 100 µM; in assay [5], more than 100 µM; in [6] it was 15.2 µM. Also, the TGI in assay [7] was 1.22 µM; in assay [8] it was 31.4 µM; in [9], 4.04 µM; in assay [10] it was more than 100 µM.
For `COc1cc2c3cc1Oc1c(OC)c(OC)cc4c1C(=NCC4)Cc1ccc(cc1)Oc1cc(ccc1O)C[C@H]3N(C)CC2`, the TGI in [1] is more than 100 µM; in assay [2], 94.4 µM; in assay [3], 26.1 µM; in assay [4], 29.6 µM; in [5] it was 32 µM; in assay [6] it was 31.2 µM. Also, the TGI in assay [7] is 24.9 µM; in assay [8] it was more than 100 µM; in [9], 43.3 µM; in assay [10], 75.2 µM.
As to `CCCCC(CCCCCC(CCCC)NCc1ccc2c(c1)OCO2)NCc1ccc2c(c1)OCO2` (centres undefined), the GI50 was 1770 nM in assay [1]; 887 nM in [2]; 0.178 µM in assay [3]; 711 nM in assay [4]; 393 nM in assay [5]; 215 nM in assay [6]. For the same compound, the GI50 in assay [7] was 213 nM; in assay [8] it was 803 nM; in assay [9], 1760 nM; in assay [10], 1420 nM. Further, the TGI is 3.16 µM in assay [1]; 2.22 µM in assay [2]; 0.322 µM in assay [3]; 1.93 µM in assay [4]; 0.967 µM in assay [5]; 0.495 µM in assay [6]. For the same compound, the TGI amounted to 0.413 µM in assay [7], 2.04 µM in [8], 3.4 µM in [9] and 2.96 µM in [10].
Take `Cc1ccc2oc(=O)cc(/C(=C3/C=CC=N3)c3ccc[nH]3)c2c1`: the GI50 was 264 nM in assay [1]; 468 nM in assay [2]; 1.15 µM in [3]; 314 nM in assay [4]; 304 nM in assay [5]; 340 nM in assay [6]. In addition, the GI50 in assay [7] was 256 nM; in assay [8] it was 361 nM; in [9] it was 215 nM; in assay [10] it was 672 nM. The TGI in [1] was determined as 0.815 µM; in [2], 6.5 µM; in assay [3], 3.12 µM; in assay [4] it was 3.77 µM; in assay [5], 1.07 µM; in assay [6], 1.46 µM. Also, the TGI in [7] came out at 0.748 µM; in assay [8], 10.8 µM; in assay [9], 0.667 µM; in assay [10], 3.36 µM.
Take `O=C(CCl)NCCNc1nccc(Nc2ccc(S(=O)(=O)Nc3ccccn3)cc2)n1`: the GI50 in assay [1] is 4670 nM; in assay [2], 2120 nM; in assay [3] it was 4.8 µM; in assay [4], 2960 nM; in assay [5], 3840 nM; in assay [6], 2450 nM. Besides, the GI50 is 2610 nM in [7], 2450 nM in [8], 2390 nM in assay [9] and 2850 nM in assay [10]. The TGI is 42.8 µM in assay [1]; 6.72 µM in assay [2]; 20.5 µM in [3]; 83.2 µM in assay [4]; more than 100 µM in [5]; 11.2 µM in assay [6]. In addition, the TGI in [7] worked out at 7.83 µM; in assay [8] it was 12.3 µM; in assay [9] it was 7.66 µM; in assay [10], 11.1 µM.
`Cn1c(=O)c(Oc2ccc(F)cc2F)cc2cnc(NC(C)(C)CO)nc21`: the GI50 was more than 25000 nM in [1]; more than 25000 nM in assay [2]; more than 25 µM in assay [3]; more than 25000 nM in assay [4]; more than 25000 nM in assay [5]; more than 25000 nM in [6]. The GI50 in assay [7], in [8], in assay [9] and in assay [10] was more than 25000 nM throughout. Besides, the TGI in assay [1], in [2], in assay [3], in assay [4], in [5] and in assay [6] was more than 25 µM each time. For the same compound, the TGI in assay [7], in assay [8], in assay [9] and in assay [10] was more than 25 µM each time.
Take `O=S(=O)(CCN1CCOCC1)Nc1cc(-c2ccc3ncnc(Nc4ccc(F)c(Cl)c4)c3c2)cnc1Cl`: the GI50 was 286 nM in assay [1]; 137 nM in [2]; 1.05 µM in [3]; 5630 nM in assay [4]; 1670 nM in assay [5]; 799 nM in [6]. Moreover, the GI50 is 239 nM in assay [7], 869 nM in assay [8], 624 nM in assay [9] and 391 nM in assay [10]. The TGI was 1.94 µM in [1]; 0.515 µM in assay [2]; 7.73 µM in assay [3]; more than 100 µM in assay [4]; 31.2 µM in assay [5]; 6.96 µM in assay [6]. The TGI was 1.35 µM in assay [7], 25.6 µM in assay [8], 4.29 µM in assay [9] and more than 100 µM in [10].
For `COc1cc(Oc2c(C)c(Cl)c(OC)c(Cl)c2OC)c2c(c1Cl)COC2=O`, the TGI in assay [1] is more than 100 µM; in [2] it was more than 100 µM; in assay [3] it was more than 100 µM; in assay [4], more than 100 µM; in [5] it was more than 100 µM; in assay [6], 83.5 µM. Besides, the TGI in assay [7] was more than 100 µM; in [8], more than 100 µM; in assay [9], more than 100 µM; in assay [10], 59.7 µM.
As to `CCN1CCC(Nc2ccnc3cc(Cl)ccc23)CC1`, the GI50 in assay [1] was more than 100000 nM; in [2] it was 11700 nM; in [3], 33.3 µM; in assay [4], 44800 nM; in assay [5], 34800 nM; in [6] it was 3440 nM. The GI50 in [7] is 32900 nM; in assay [8], 36500 nM; in [9] it was 18000 nM; in assay [10], 91900 nM. Besides, the TGI is more than 100 µM in assay [1]; more than 100 µM in assay [2]; more than 100 µM in assay [3]; more than 100 µM in assay [4]; more than 100 µM in [5]; 28.2 µM in [6]. In addition, the TGI in assay [7] was more than 100 µM; in assay [8], more than 100 µM; in assay [9], 53.6 µM; in [10], more than 100 µM.
In the case of `O=C1/C(=C/c2ccccc2)CN(C(=O)C(Cl)Cl)C/C1=C\c1ccccc1`, the GI50 in assay [1] is 1770 nM; in assay [2], 708 nM; in assay [3] it was 0.703 µM; in assay [4] it was 452 nM; in assay [5], 442 nM; in assay [6] it was 110 nM. For the same compound, the GI50 is 914 nM in assay [7], 1210 nM in assay [8], 597 nM in assay [9] and 430 nM in [10]. For the same compound, the TGI in assay [1] came out at 3.23 µM; in assay [2] it was 2.2 µM; in assay [3] it was 1.98 µM; in [4] it was 4.92 µM; in assay [5], 1.68 µM; in [7], 2.33 µM. For the same compound, the figures for the TGI in [8], in assay [9] and in assay [10] were 2.47 µM, 1.86 µM and 1.26 µM, respectively.
With `CC(C)N1CCN(c2ccncc2S(=O)(=O)N2CCCCC2)CC1`, the TGI in assay [1], in [2], in [3], in assay [4], in assay [5] and in [6] was more than 100 µM each time. Besides, the TGI in [7], in assay [8], in assay [9] and in assay [10] was more than 100 µM each time.
Take `C=C1CC2(CC(c3ccccc3Cl)OC(c3ccccc3Cl)C2)OC1=O` (centres undefined): the TGI in [1] was found to be 16.9 µM; in assay [2], 4.62 µM; in assay [3], 7.74 µM; in [4] it was 8.55 µM; in assay [5], 4.71 µM; in [6] it was 14.2 µM. Moreover, the TGI in assay [7] came out at 4.77 µM; in [8], 14.4 µM; in [9], 19.2 µM; in assay [10] it was 5.75 µM.
On to `COC1C(O)CC(OC2CC(OC3CC(O[C@@H]4C(=O)c5c(cc6cc(OC7CC(OC8CC(O)C(O)C(C)O8)C(O)C(C)O7)c(C)c(O)c6c5O)CC4[C@H](OC)C(=O)O)OC(C)C3O)OC(C)C2O)OC1C` (some centres undefined), for which the GI50 in assay [1] was 2240 nM; in assay [2] it was 1760 nM; in assay [3], 3.1 µM; in [4], 10300 nM; in [5], 2270 nM; in assay [6] it was 922 nM. Also, the GI50 was 1100 nM in [7], 1960 nM in [8], 970 nM in assay [9] and 1720 nM in assay [10]. Besides, the TGI in [1] is more than 33.3 µM; in [2], more than 33.3 µM; in assay [3], 20 µM; in assay [4] it was more than 33.3 µM; in assay [5], more than 33.3 µM; in [6], more than 33.3 µM. Further, the TGI in assay [7] is 4.22 µM; in assay [8] it was more than 33.3 µM; in assay [9], more than 33.3 µM; in assay [10], more than 33.3 µM.
Turning to `CN(CCCCCl)P(=O)(OCCS(=O)(=O)CC(NC(=O)CCC(N)C(=O)O)C(=O)NC(C(=O)O)c1ccccc1)OCC1OC(n2ccc(N)nc2=O)C(O)C1O` (centres undefined), the GI50 in assay [1] is 57100 nM; in assay [2], 3310 nM; in [3], 28 µM; in assay [4], 17800 nM; in assay [5], 5400 nM; in assay [6], 1390 nM. The GI50 was more than 75000 nM in [7], 9100 nM in [8], more than 58800 nM in [9] and more than 60000 nM in assay [10]. In addition, the TGI in assay [1] is more than 75 µM; in assay [2] it was more than 47.3 µM; in assay [3], more than 75 µM; in [4], more than 75 µM; in [5], more than 75 µM; in [6], more than 51.2 µM. For the same compound, the TGI in assay [7], in [8], in assay [9] and in assay [10] was more than 75 µM throughout.
In the case of `N#Cc1c(NCc2ccccc2)nc(NCc2ccccc2)c(C#N)c1-c1ccc(O)cc1`, the GI50 was 34500 nM in [1]; 23500 nM in assay [2]; 39.5 µM in [3]; 47000 nM in assay [4]; 58100 nM in assay [5]; 7090 nM in assay [6]. Besides, the GI50 in assay [7] was 39100 nM; in assay [8] it was 32400 nM; in assay [9] it was 27100 nM; in [10] it was 5990 nM. Also, the TGI in assay [1] is more than 100 µM; in [2] it was 74.8 µM; in assay [3], more than 100 µM; in assay [4], more than 100 µM; in [5], more than 100 µM; in assay [6], 91.7 µM. The TGI in [7] is more than 100 µM; in assay [8], more than 100 µM; in assay [9] it was more than 100 µM; in assay [10], 53.2 µM.
With `CC/C=C\C[C@H](F)C/C=C1/C(=O)C=C[C@@H]1C/C=C\CCCC(=O)OC`, the GI50 in assay [1] is 10500 nM; in assay [2] it was 1940 nM; in assay [3], 4.1 µM; in [4] it was 1710 nM; in assay [5], 2050 nM; in [6], 1060 nM. For the same compound, the GI50 is 6950 nM in assay [7], 3170 nM in assay [8], 2240 nM in assay [9] and 1250 nM in [10]. The TGI was 32.1 µM in assay [1]; 8.58 µM in assay [2]; 10.6 µM in assay [3]; 35 µM in assay [4]; 12.2 µM in assay [5]; 3.42 µM in assay [6]. Also, the TGI in [7] is 14.3 µM; in assay [8] it was 9.81 µM; in assay [9], 8.3 µM; in assay [10] it was 3.24 µM.
